Laboratory results from PubChem BioAssay (NCI).
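In this assay, cells in 96-well plates receive the compound at five concentrations for 48 hours. Endpoints are linearly interpolated between the surrounding concentrations. GI50 = concentration required for 50% inhibition of growth. Definition used: TGI = concentration required for complete inhibition of growth.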

Experiments:
Assay in all cases: NCI-60 cell line screen, 48 h
NCI-H522 lung = test system: NCI-H522 lung
HL-60(TB) leukemia = test system: HL-60(TB) leukemia
OVCAR-8 ovarian = test system: OVCAR-8 ovarian
HCC-2998 colon = test system: HCC-2998 colon
OVCAR-3 ovarian = test system: OVCAR-3 ovarian
SK-MEL-2 melanoma = test system: SK-MEL-2 melanoma
EKVX NSCLC = test system: EKVX NSCLC
HOP-92 NSCLC = test system: HOP-92 NSCLC
KM12 colon = test system: KM12 colon
SNB-75 CNS = test system: SNB-75 CNS
OVCAR-4 ovarian = test system: OVCAR-4 ovarian
IGROV1 ovarian = test system: IGROV1 ovarian

| Structure (SMILES) | TGI (NCI-H522 lung) | TGI (HL-60(TB) leukemia) | TGI (OVCAR-8 ovarian) | TGI (HCC-2998 colon) | TGI (OVCAR-3 ovarian) | TGI (SK-MEL-2 melanoma) | TGI (EKVX NSCLC) | TGI (HOP-92 NSCLC) | TGI (KM12 colon) | TGI (SNB-75 CNS) | TGI (OVCAR-4 ovarian) | TGI (IGROV1 ovarian) | GI50 (HL-60(TB) leukemia) |
| --- | --- | --- | --- | --- | --- | --- | --- | --- | --- | --- | --- | --- | --- |
| CC(C)C1OC(=O)C(Cc2ccccc2)N(C)C(=O)C(C(C)C)OC(=O)C(Cc2ccccc2)N(C)C(=O)C(C(C)C)OC(=O)C(Cc2ccccc2)N(C)C1=O (stereo unspecified) | 2.12 µM | 1.21 µM | 1.97 µM | 1.99 µM | 1.79 µM | 1.36 µM | 2.41 µM | 1.3 µM | 1.33 µM | 2.99 µM | 1.18 µM | 2.43 µM | – |
| COc1cccc(NC(=O)/C(CS(=O)(=O)CCC(C(C)=O)C(C)=O)=N\NC(C)(C)C)c1 | > 100 µM | > 100 µM | > 100 µM | > 100 µM | > 100 µM | > 100 µM | > 100 µM | > 100 µM | > 100 µM | > 100 µM | > 100 µM | > 100 µM | – |
| CC(C)=CC(=O)c1[nH]c2ccccc2c1CC(=O)NCCc1cnc[nH]1 | > 100 µM | > 100 µM | > 100 µM | > 100 µM | > 100 µM | > 100 µM | > 100 µM | > 100 µM | > 100 µM | > 100 µM | > 100 µM | > 100 µM | – |
| NC1CC(=O)c2c(I)sc(I)c21 (stereo unspecified) | 24.3 µM | 14.6 µM | > 55.4 µM | 44.2 µM | 38.7 µM | 36.2 µM | 39.3 µM | 43.5 µM | 32.9 µM | 37.9 µM | 38.4 µM | 33.1 µM | – |
| C/C(=C\COP(=O)(O)OP(=O)(O)O)CC/C=C(\C)CNc1c(F)c(F)c(F)c(F)c1F | > 100 µM | > 100 µM | > 100 µM | > 100 µM | > 100 µM | > 100 µM | > 100 µM | > 100 µM | > 100 µM | > 31.6 µM | > 100 µM | > 100 µM | – |
| COC1=CC(=O)C2(C=C1OC)OC[C@H]1Oc3c(ccc4c3C=CC(C)(C)O4)C(=O)[C@H]12 (stereo partly specified) | 51.5 µM | 44.6 µM | > 100 µM | > 100 µM | > 100 µM | > 100 µM | > 100 µM | 44.3 µM | > 100 µM | > 100 µM | – | > 100 µM | – |
| CNC(=O)OC1/C(C)=C\C(C)C(O)C(OC)CC(C)CC2=C(OC)C(=O)C=C(C2=O)N(C)C(=O)/C(C)=C/C=C\C1OC (stereo unspecified) | 6.09 µM | 14.1 µM | 21.1 µM | 21.4 µM | 16 µM | 21.9 µM | 24.7 µM | 16 µM | 26.3 µM | 28.6 µM | 22 µM | 24.6 µM | 0.918 µM |
| Cc1ccc2c(c1)CC1(Cc3cc(C)ccc3C1=O)C2=O | > 100 µM | > 100 µM | > 100 µM | > 100 µM | > 100 µM | > 100 µM | > 100 µM | > 100 µM | – | > 100 µM | > 100 µM | > 100 µM | – |
| Cc1ccccc1NC(=O)C(=O)C(C(=O)c1ccccc1F)C1OC(=O)c2ccccc21 (stereo unspecified) | 19.1 µM | 56.5 µM | – | 24.8 µM | 95 µM | 65.4 µM | > 100 µM | 65.8 µM | 68.2 µM | 31.8 µM | 60.9 µM | – | – |
| COC(=O)c1sc2c(c1C(=O)OC)C(=Nc1ccc(OC)cc1)SC2=Nc1ccc(OC)cc1 | 2.45 µM | 0.552 µM | 2.32 µM | 3.17 µM | 1.32 µM | 1.48 µM | 3.02 µM | 2.91 µM | 3.03 µM | 1.24 µM | 2.83 µM | 2.24 µM | – |
| O=S(c1ccc(O)cc1)c1ccc(O)cc1 | > 100 µM | > 100 µM | – | > 100 µM | > 100 µM | > 100 µM | > 100 µM | > 100 µM | > 100 µM | > 100 µM | > 100 µM | > 100 µM | – |
| COc1ccc(N2C(=O)[C@@H]3[C@@H]4CC(C)CC[C@@H]4c4c([nH]c5ccccc45)[C@@H]3C2=O)cc1 (stereo partly specified) | > 55 µM | 89.4 µM | 40.1 µM | > 100 µM | 37.2 µM | 28.5 µM | > 100 µM | 23 µM | > 100 µM | 12.4 µM | 37 µM | 49.7 µM | – |
| COc1cccc(C2c3cc4c(cc3OC(NNS(=O)(=O)c3ccc(C)cc3)C2C)OCO4)c1O (stereo unspecified) | 35.9 µM | 38.2 µM | > 100 µM | > 100 µM | 57.5 µM | 53 µM | > 100 µM | 76.3 µM | 79.2 µM | 40.7 µM | – | > 100 µM | – |
| CC(=O)OC1CCC2(C)C(CCC3C2CCC2(C)C(c4ccc(=O)oc4)C(OC(C)=O)CC32O)C1 (stereo unspecified) | 0.025 µM | 0.114 µM | 0.0951 µM | 0.153 µM | 0.0235 µM | 0.0911 µM | 0.0279 µM | 0.0721 µM | 0.161 µM | 0.0801 µM | 0.0253 µM | 0.169 µM | – |
| CCOC(=O)CN(CC)C(=O)NC12CC3CC(CC(C3)C1)C2 | 493 µM | 348 µM | > 750 µM | 700 µM | 512 µM | 281 µM | > 422 µM | 176 µM | > 750 µM | 316 µM | 568 µM | > 750 µM | – |
| C=CCN(C(C)=O)c1cc(OCc2ccccc2)c2c(c1)c(C)cn2S(=O)(=O)c1ccccc1 | > 55.3 µM | > 100 µM | > 100 µM | > 100 µM | > 27.7 µM | 12.3 µM | > 50.3 µM | > 100 µM | > 100 µM | > 100 µM | > 100 µM | > 100 µM | – |
| O=C1OCOC2(CCCC2)C1c1ccccc1 (stereo unspecified) | > 100 µM | > 100 µM | > 100 µM | > 100 µM | > 100 µM | > 100 µM | > 100 µM | > 100 µM | > 100 µM | > 100 µM | > 100 µM | > 100 µM | – |
| Cc1nc2nnc(CCCCCCCCc3nnc4nc(C)[nH]n34)n2[nH]1 | > 100 µM | > 100 µM | > 100 µM | > 100 µM | > 100 µM | > 100 µM | > 100 µM | > 100 µM | > 100 µM | > 100 µM | > 100 µM | > 100 µM | – |
| CCn1c(=O)c2nc(SC)sc2n(-c2ccccc2)c1=S | > 100 µM | 19.9 µM | > 100 µM | > 100 µM | > 100 µM | > 100 µM | > 100 µM | > 100 µM | > 100 µM | > 100 µM | > 100 µM | > 100 µM | – |
| O=C(CC(C(=O)c1ccsc1)c1cccs1)c1cccs1 (stereo unspecified) | > 100 µM | > 100 µM | > 100 µM | > 100 µM | > 100 µM | > 100 µM | > 100 µM | > 100 µM | – | > 100 µM | > 100 µM | > 100 µM | – |
| c1cc(CSP234N5CCN2CCN3CCN4CC5)cc(CSP234N5CCN2CCN3CCN4CC5)c1 | 43.1 µM | 28.1 µM | 41.9 µM | 57.5 µM | > 100 µM | 45.1 µM | > 100 µM | 64.5 µM | 47.1 µM | 76.4 µM | > 100 µM | 76.6 µM | – |
| Clc1ccc(Cc2nc3cc4ccccc4cc3[nH]2)cc1Cl | 29 µM | 59.2 µM | 49.8 µM | 40.4 µM | 61 µM | 34.4 µM | 78.2 µM | 30.6 µM | 45.9 µM | 44.5 µM | 36.8 µM | 16.7 µM | – |
| COc1ccc2cc(CNCCCCCCNC(=O)Nc3cccc4ccccc34)ccc2c1 | > 100 µM | > 100 µM | > 100 µM | > 100 µM | > 100 µM | > 100 µM | > 100 µM | > 100 µM | > 100 µM | > 100 µM | > 100 µM | > 100 µM | – |
| C=CCCCCCCCCCOC1C=CC(O)C(CO)O1 (stereo unspecified) | > 100 µM | 65.5 µM | 37.4 µM | > 100 µM | > 100 µM | > 100 µM | > 100 µM | > 100 µM | 85.1 µM | > 100 µM | > 100 µM | 59.1 µM | – |
| COc1ccc(Cl)cc1NC(=O)O/N=C(\Cl)C(C)C | 2.46 µM | > 24.5 µM | 32.7 µM | 35.7 µM | 18.7 µM | 33.9 µM | 13.5 µM | 3.9 µM | 35.5 µM | 38.7 µM | 34.1 µM | 27.1 µM | – |
| O=C(O)COc1c(Cl)cc(Cl)c(C(c2c(Cl)cc(Cl)c(OCC(=O)O)c2Cl)C(Cl)(Cl)Cl)c1Cl | > 100 µM | 59.9 µM | > 100 µM | 28.6 µM | – | 42.2 µM | – | 62.4 µM | > 100 µM | 93.5 µM | > 100 µM | > 100 µM | – |
| COc1cc2c(cc1C)NC(=O)/C2=C/c1c(Cl)[nH]c2ccccc12 | 20.5 µM | 7.37 µM | 26.4 µM | 15.4 µM | 6.34 µM | 8.56 µM | 20.9 µM | 25 µM | 16.9 µM | 21.7 µM | – | 16.8 µM | – |
| O=C1c2cccc3cc([N+](=O)[O-])cc(c23)C(=O)N1c1ccc(OCCN2CCCC2)cc1 | 31.7 µM | 29 µM | > 100 µM | 33.5 µM | – | 54.3 µM | 71.3 µM | > 100 µM | > 100 µM | 67.1 µM | 67.2 µM | 41.9 µM | – |
